Laboratory results taken from patent publication US20260183302A1, “PDK1 REGULATORY COMPOUND AND COMPOSITION CONTAINING THE SAME” (PROVIBIO CO., LTD., priority 2024, published 2026).

Legend:
[1] = tested on: Human B Lymphocyte cell line, SU-DHL-8; experiment: Relative cell viability, SU-DHL-8 (CCK-8); assay type: cell-based; settings: 48 hours, untreated (DMSO) = 100%
Method: Human-derived B lymphoma cell line SU-DHL-8 (Cat. #CRL-2961) purchased from ATCC was cultured in RPMI-1640 medium containing 10% FBS, 100 U/mL penicillin, and 100 μg/mL streptomycin.
The cell culture medium was then harvested, centrifuged at 1,300 rpm for 5 minutes, and the supernatant was removed. The cells were resuspended in the same medium and dispensed into a 96-well plate (Costar 96-well cell culture plate, Corning) at 90 μL per well, resulting in the conditions specified in Table 5.
Then, 10 μL of CCK-8 was added to each well, and the plates were incubated again at 37° C. in a 5% CO2 incubator for 4 hours.
In other words, when the survival rate of untreated cells (DMSO) is set at 100%, the relative cell survival rate in each group treated with the drug at different concentrations is indicated.

[2] = tested on: T cells isolated from mouse spleens; experiment: T cell proliferation inhibition (CFSE flow cytometry, anti-CD3/anti-CD28 stimulation); assay type: cell-based, C57BL/6 mice; settings: three days
Method: To verify the T cell proliferation inhibitory effect of the compounds according to the present invention, the following experiment was performed based on flow cytometry analysis using carboxyfluorescein diacetate succinimidyl ester (CFSE), a fluorescent dye that binds to intracellular molecules via covalent bonds.
Spleens were extracted from 7-week-old C57BL/6 mice, ground, and then separated into single cells using a strainer (40 μm pore size, SPL). Red blood cells were removed using ACK (Ammonium-Chloride-Potassium) lysis buffer to isolate white blood cells.
Finally, using a MACS Magnetic Stand and LS column, T cells were isolated from the spleen.
The T cells isolated from the spleen were resuspended in 1 mL of free medium (RPMI-1640+200 U/mL penicillin+200 μg/mL streptomycin), and 0.3 μL of CFSE (10 mM) was added. The mixture was incubated at 37° C. for 5 minutes.
Free medium (10 mL) was added to stop the reaction, and the cells were centrifuged to obtain the cell pellet.
RPMI 1640 medium containing 10% FBS, 100 U/mL penicillin, 100 μg/mL streptomycin, and resuspended the cells. The cells were then seeded into a 96-well plate at a density of 2× 10^5 cells per well and activated with CD3 and CD28 antibodies (0.5 μg/mL each) to activate T cells.
The compound diluted in DMSO was added at concentrations of 10 nM, 100 nM, 1 μM, 10 μM, 30 μM, and 50 μM, with three wells per concentration, and cultured at 37° C. and 5% CO2 for three days. The cells were then analyzed using a FACS Canto instrument.
The proliferation inhibition rate (%) was calculated using the following formula: […]

Row | SMILES | Relative cell viability (%) ([1]; SU-DHL-8, 1 μM) | Relative cell viability (%) ([1]; SU-DHL-8, 10 μM) | Relative cell viability (%) ([1]; SU-DHL-8, 30 μM) | Relative cell viability (%) ([1]; SU-DHL-8, 50 μM) | Proliferation inhibition rate (%) ([2]; concentration 100 nM) | Proliferation inhibition rate (%) ([2]; concentration 1 μM) | Proliferation inhibition rate (%) ([2]; concentration 10 μM) | Proliferation inhibition rate (%) ([2]; concentration 30 μM) | Proliferation inhibition rate (%) ([2]; concentration 50 μM) | Proliferation inhibition rate (%) ([2]; concentration 10 nM)
1 | CC1CN(C)C(CCCCCCCCCCCCNc2ccc3cncnc3n2)N1 (stereo not drawn) [Compound 43] | 22.61% | 11.93% | 2.34% | 1.58% | 100.00% | 100.00% | 100.00% | 100.00% | 100.00% | 
2 | Nc1ncccc1C(=O)NCCCCCCCCCCCCN1CC=CC1 [Compound 129, 2-amino-N-(12-(2,5-dihydro-1H-pyrrol-1-yl)dodecyl) nicotinamide] | 34.26% | 33.99% | 35.05% | 34.27% | 90.00% | 100.00% | 100.00% | 100.00% | 100.00% | 0.00%
3 | Cc1ccc(OC2CCN(CCCCCCCCCCCCNC(=O)c3cccnc3N)CC2)cc1 [Compound 51, 2-Amino-N-(12-(4-(p-tolyloxy)piperidin-1-yl)dodecyl) nicotinamide] | 3.48% | 1.98% | 0.89% | 0.48% |  | 100.00% | 100.00% | 100.00% | 100.00% | 0.77%
4 | Cc1ccc(C2CCN(CCCCCCCCCCCCNC(=O)c3cccnc3N)CC2)cc1 [Compound 55, 2-Amino-N-(12-(4-(p-tolyl)piperidin-1-yl)dodecyl) nicotinamide] | 9.36% | 4.92% | 1.10% | 0.97% | 100.00% | 100.00% | 100.00% | 100.00% | 100.00% | 
5 | Nc1ncccc1C(=O)NCCCCCCCCCCCCN1CCN(CCO)CC1 [Compound 54, 2-Amino-N-(12-(4-(2-hydroxyethyl)piperazin-1-yl)dodecyl) nicotinamide] | 6.42% | 4.05% | 3.26% | 2.23% | 100.00% | 100.00% | 100.00% | 100.00% | 100.00% | 
6 | Cl.Nc1ncccc1C(=O)NCCCCCCCCCCCCN1CC[C@H](N)C1 [Compound 50, (S)-2-Amino-N-(12-(3-aminopyrrolidin-1-yl)dodecyl) nicotinamide hydrochloride] | 9.20% | 8.18% | 6.18% | 4.31% | 100.00% | 100.00% | 100.00% | 100.00% | 100.00% | 
7 | CC1CCCN(CCCCCCCCCCCCNC(=O)c2cccnc2N)CC1 (stereo not drawn) [Compound 39, 2-Amino-N-(12-(4-methylazepan-1-yl)dodecyl) nicotinamide] | 11.48% | 8.41% | 6.24% | 4.27% | 100.00% | 100.00% | 100.00% | 100.00% | 100.00% | 
8 | Nc1ncccc1C(=O)NCCCCCCCCCCCCN1CCS(=O)(=O)CC1 [Compound 25, 2-Amino-N-(12-(1,1-dioxidothiomorpholino)dodecyl) nicotinamide] | 9.73% | 1.26% | 0.11% | 0.95% |  | 100.00% | 100.00% | 100.00% | 100.00% | 
9 | Nc1ncccc1C(=O)NCCCCCCCCCCCCN1CCC(Oc2ccncc2)CC1 [Compound 38, 2-Amino-N-(12-(4-(pyridin-4-yloxy)piperidin-1-yl)dodecyl) nicotinamide] | 4.16% | 3.30% | 1.79% | 1.42% | 100.00% | 100.00% | 100.00% | 100.00% | 100.00% | 
10 | CC1CNCCN1CCCCCCCCCCCCNC(=O)c1cccnc1N (stereo not drawn) [Compound 35, 2-Amino-N-(12-(2-methylpiperazin-1-yl)dodecyl) nicotinamide] | 1.18% | 0.64% | 0.42% |  | 100.00% | 100.00% | 100.00% | 100.00% | 100.00% | 
11 | CC1CN(CCCCCCCCCCCCNC(=O)c2cccnc2N)CC(C)O1 (stereo not drawn) [Compound 21, 2-Amino-N-(12-(2,6-dimethylmorpholino)dodecyl) nicotinamide] | 9.64% | 7.68% | 3.70% |  | 100.00% | 100.00% | 100.00% | 100.00% | 100.00% | 
12 | Nc1ncccc1C(=O)NCCCCCCCCCCCCN1CC(F)(F)C1 [Compound 122, 2-Amino-N-(12-(3,3-difluoroazetidin-1-yl)dodecyl) nicotinamide] | 31.84% | 31.91% | 32.93% | 35.70% | 0.00% | 80.00% | 100.00% | 100.00% | 100.00% | 0.00%
13 | Nc1ncccc1C(=O)NCCCCCCCCCCCCN1CCN(C=O)CC1 [Compound 97, 2-amino-N-(12-(4-formylpiperazin-1-yl)dodecyl) nicotinamide] |  |  |  |  |  | 100.00% | 100.00% | 100.00% | 100.00% | 
14 | CN1CCN(CCCCCCCCCCCCNC(=O)c2ccnc(Cl)c2Cl)CC1 [Compound 198, 2,3-Dichloro-N-(12-(4-methylpiperazin-1-yl)dodecyl) isonicotinamide] |  |  |  |  | 9.41% | 20.12% | 100.00% | 100.00% | 100.00% | 5.35%
15 | Nc1ncccc1C(=O)NCCCCCCCCCCCCN1CCC(O)CC1 [Compound 48, 2-Amino-N-(12-(4-hydroxypiperidin-1-yl)dodecyl) nicotinamide] |  |  |  |  | 100.00% | 100.00% | 100.00% | 100.00% | 100.00% | 
16 | Nc1ncccc1C(=O)NCCCCCCCCCCCCN1CCC2CCCCC2C1 (stereo not drawn) [Compound 16, 2-Amino-N-(12-(octahydroisoquinolin-2 (1H)-yl)dodecyl) nicotinamide] |  |  |  |  |  | 100.00% | 100.00% | 100.00% | 100.00% | 
